Results taken from ChEMBL document CHEMBL4190360, “Exploring Heteroaryl-pyrazole Carboxylic Acids as Human Carbonic Anhydrase XII Inhibitors” (ACS Med Chem Lett, 2017).

Columns and labels:
[1] = tested on: PC-3; experiment: Growth inhibition of human PC3 cells at 1 to 100 uM after 24 hrs by MTS assay relative to control; type: functional
[2] = tested on: SH-SY5Y; experiment: Growth inhibition of human SH-SY5Y cells at 1 to 100 uM after 24 hrs by MTS assay relative to control; type: functional
[3] = tested on: HEK293; experiment: (§1) Growth inhibition of HEK293 cells at 1 to 100 uM after 24 hrs by MTS assay relative to control; type: cell-based; conditions: human, hek293, 24 h, 100 µM
[4] = target: Carbonic anhydrase 9 (Homo sapiens, UniProt Q16790)
Description: Inhibition of recombinant human carbonic anhydrase 9 catalytic domain preincubated for 15 mins prior to testing measured for 10 to 100 secs by phenol red-based stopped-flow CO2 hydration assay

[5] = tested on: HEK293; experiment: Growth inhibition of HEK293 cells after 24 hrs by MTS assay; type: cell-based; conditions: human, hek293, 24 h
[6] = tested on: SH-SY5Y; experiment: Antiproliferative activity against CoCl2-simulated human SH-SY5Y cells assessed as reduction in cell viability at 30 uM pretreated for 24 hrs followed by CoCl2 addition measured after overnight incubation by MTS assay; type: functional
[7] = as §1; type: cell-based; conditions: human, HEK293 cells; read-out: GI

Row | Structure (SMILES) | Ki [4] | growth inhibition (GI) [1] | growth inhibition (GI) [2] | growth inhibition (GI) [3] | growth inhibition (GI) [5] | Activity [6] | inhibition at 24 h, 100 µM [7]
1 | CCn1cc(-c2cc(C(=O)O)n[nH]2)c2ccccc21 |  | 85% | 85% | Non-Toxic |  |  | 
2 | CC(C)n1cc(-c2cc(C(=O)O)[nH]n2)c2ccccc21 | 18.9 µM | 85% | 85% | Non-Toxic |  |  | 
3 | CCCCn1cc(-c2cc(C(=O)OC)[nH]n2)c2ccccc21 | 7.9 µM |  |  |  |  |  | 
4 | COC(=O)c1cc(-c2cn(C(C)C)c3ccccc23)n[nH]1 | 7.36 µM | 85% | 85% |  | Dose-dependent effect | 40% | 70%
5 | CCCCn1cc(-c2cc(C(=O)O)[nH]n2)c2ccccc21 | 4.51 µM |  |  |  |  |  | 

More lines, in order of falling Ki [4], values ahead:

Row | Ki [4] | Structure (SMILES) | growth inhibition (GI) [1] | growth inhibition (GI) [2] | growth inhibition (GI) [3] | growth inhibition (GI) [5] | Activity [6] | inhibition at 24 h, 100 µM [7]
6 | 3.02 µM | CCn1cc(-c2cc(C(=O)OC)n(C)n2)c2ccccc21 |  |  |  |  |  | 
7 | 2.91 µM | CCn1cc(-c2cc(C(=O)O)n(C)n2)c2ccccc21 |  |  |  |  |  | 
8 | 0.47 µM | CCn1cc(-c2cc(C(=O)OC)[nH]n2)c2ccccc21 | 85% | 85% | Non-Toxic |  |  | 
